Our source for the EC50 and inhibition of binding values is PubChem BioAssay AID2080 (NMMLSC, 2009).

The source made the active and inactive calls. How the calls were made is not given here.

For one test, the target named is Bcl-2-related protein A1 (Homo sapiens) (UniProt Q16548). Kind of test: Bfl-1/Bim complex disruptors – biochemical, multiplexed, bead-based flow cytometry, HTS hits, confirmation (AID 2080). Particulars: Bim peptide-Bfl-1 binding. (In general: In flow cytometry, cells or beads pass a laser one at a time.)
Chain of Bcl-2-related protein A1 (Homo sapiens) (Q16548 whole entry, looked up): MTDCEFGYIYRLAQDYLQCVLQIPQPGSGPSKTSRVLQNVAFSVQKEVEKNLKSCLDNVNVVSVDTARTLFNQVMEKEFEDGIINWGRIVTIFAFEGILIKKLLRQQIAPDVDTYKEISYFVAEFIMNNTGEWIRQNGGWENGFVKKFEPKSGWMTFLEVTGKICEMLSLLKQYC
With `COc1ccc(N2C(=O)C(Cl)=C(NC3C(=O)N(c4ccccc4)N(C)C3C)C2=O)cc1` (stereo not drawn), the EC50 (commonly the concentration at which the effect is half-maximal) was 1240 nM.

The same test, now with this note: Bim peptide-Bfl-1 binding, at 100 µM (top of the series).
Turning to `Cc1ccc(-c2cc(C(=O)Nc3nccs3)c3ccccc3n2)o1`, the inhibition of binding entry is “inactive”.

In the case of `Cc1ccc(-c2nc3c(c(=O)[nH]c(=O)n3Cc3ccccc3)n2C)o1`, the inhibition of binding entry is “inactive”.

For `O=C1NC(=O)C2(Cc3c(nc4ccccn4c3=O)N3CCCCCC32)C(=O)N1Cc1ccccc1` (stereo not drawn), the inhibition of binding result is “inactive”.

As to `O=C(/C=C/c1ccc(-c2ccccc2[N+](=O)[O-])o1)c1ccccc1`, the inhibition of binding entry is “inactive”.

On to `CCN(CC)c1ccc(NC(=O)COc2ccccc2C)cc1S(=O)(=O)Nc1ccccc1OC`, for which the inhibition of binding entry is “inactive”.

Consider `CCN(CC)C(=O)COC(=O)c1cc(-c2ccco2)nc2ccccc12`, for which the inhibition of binding entry is “inactive”.

Consider `O=c1c2c(n3nnnc3n1Cc1ccccc1)-c1ccccc1CC21CCCC1`, for which the inhibition of binding result is “inactive”.

Regarding `CNC1CCC(Br)CC(C(=O)/C=C/c2cccc(OC)c2OC)C1=O` (stereo not drawn), the inhibition of binding entry is “inactive”.

In the case of `COc1cc(CNc2ccc3[nH]c(=O)[nH]c3c2)cc(Br)c1OCC(=O)NC(C)(C)C`, the inhibition of binding entry is “inactive”.

Turning to `CCOc1ccccc1CNc1ccc(O)cc1`, the inhibition of binding entry was “inactive”.

Turning to `O=C1c2ccccc2C(=O)N1CN(C(=O)COc1ccc(Cl)cc1Cl)c1cccc(F)c1`, the inhibition of binding result was “inactive”.

As for `Cc1ccc(C=NNC(=O)CSc2nnc(-c3ccc(Cl)cc3)n2-c2ccccc2)o1`, the inhibition of binding entry was “inactive”.
